From ChEMBL document CHEMBL1201861, “Genomics of Drug Sensitity in Cancer screening data, Wellcome Trust Sanger Institute”

Key:
Experiment in all cases: cells
COLO-800 = type: functional, cell-based, Homo sapiens; conditions: Homo sapiens, COLO-800;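 also: growth inhibition of COLO-800 cells, read out with a cell viability assay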
Description: SANGER: Inhibition of human COLO-800 cell growth in a cell viability assay.

COLO-824 = type: functional, cell-based, Homo sapiens; conditions: Homo sapiens, COLO-824
Description: SANGER: Inhibition of human COLO-824 cell growth in a cell viability assay.

CW-2 = type: functional, cell-based, Homo sapiens; conditions: Homo sapiens, CW-2;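 also: growth inhibition of CW-2 cells, read out by a cell viability assay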
Description: SANGER: Inhibition of human CW-2 cell growth in a cell viability assay.

DB = type: functional, cell-based, Homo sapiens; conditions: Homo sapiens, DB
Description: SANGER: Inhibition of human DB cell growth in a cell viability assay.

ES7 = type: functional, cell-based, Homo sapiens; conditions: Homo sapiens, ES7;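 also: growth inhibition of cultured human ES7 cells, read out as cell viability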
Description: SANGER: Inhibition of human ES7 cell growth in a cell viability assay.

EW-11 = type: functional, cell-based, Homo sapiens; conditions: Homo sapiens, EW-11;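 also: growth inhibition of human EW-11 cells, measured with a cell viability assay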
Description: SANGER: Inhibition of human EW-11 cell growth in a cell viability assay.

EW-13 = type: functional, cell-based, Homo sapiens; conditions: Homo sapiens, EW-13; read-out: IC50;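 also: growth inhibition of EW-13 cells, read out with a cell viability assay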
Description: SANGER: Inhibition of human EW-13 cell growth in a cell viability assay.

GI-ME-N = type: functional, cell-based, Homo sapiens; conditions: Homo sapiens, GI-ME-N;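 also: growth inhibition of human GI-ME-N cells, read out with a cell viability assay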
Description: SANGER: Inhibition of human GI-ME-N cell growth in a cell viability assay.

GOTO = type: functional, cell-based, Homo sapiens; conditions: Homo sapiens, GOTO;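 also: growth inhibition of GOTO cells, read out by a cell viability assay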
Description: SANGER: Inhibition of human GOTO cell growth in a cell viability assay.

GR-ST = type: functional, cell-based, Homo sapiens; conditions: Homo sapiens, GR-ST
Description: SANGER: Inhibition of human GR-ST cell growth in a cell viability assay.

HCE-T = type: functional, cell-based, Homo sapiens; conditions: Homo sapiens, HCE-T;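 also: cell viability assay read-out, reporting inhibition of HCE-T cell growth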
Description: SANGER: Inhibition of human HCE-T cell growth in a cell viability assay.

HD-MY-Z = type: functional, cell-based, Homo sapiens; conditions: Homo sapiens, HD-MY-Z;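 also: growth inhibition of HD-MY-Z cells, read out with a cell viability assay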
Description: SANGER: Inhibition of human HD-MY-Z cell growth in a cell viability assay.

HH = type: functional, cell-based, Homo sapiens; conditions: Homo sapiens, HH
Description: SANGER: Inhibition of human HH cell growth in a cell viability assay.

HT-144 = type: functional, cell-based, Homo sapiens; conditions: Homo sapiens, HT-144
Description: SANGER: Inhibition of human HT-144 cell growth in a cell viability assay.

K562 = type: functional, cell-based, Homo sapiens; conditions: Homo sapiens, K562
Description: SANGER: Inhibition of human K-562 cell growth in a cell viability assay.

KM-H2 = type: functional, cell-based, Homo sapiens; conditions: Homo sapiens, KM-H2;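 also: growth inhibition of KM-H2 cells, read out by a cell viability assay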
Description: SANGER: Inhibition of human KM-H2 cell growth in a cell viability assay.

KNS-42 = type: functional, cell-based; conditions: Homo sapiens;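 also: growth inhibition of KNS-42 cells, read out with a cell viability assay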
Description: SANGER: Inhibition of human KNS-42 cell growth in a cell viability assay.

KP-N-YS = type: functional, cell-based, Homo sapiens; conditions: Homo sapiens, KP-N-YS;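 also: cell viability assay measuring inhibition of cell line growth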
Description: SANGER: Inhibition of human KP-N-YS cell growth in a cell viability assay.

LB2241-RCC = type: functional, cell-based, Homo sapiens; conditions: Homo sapiens, LB2241-RCC;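 also: cell viability assay measuring how strongly the cultured human renal carcinoma line is prevented from growing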
Description: SANGER: Inhibition of human LB2241-RCC cell growth in a cell viability assay.

LXF-289 cell line = type: functional, cell-based; conditions: Homo sapiens
Description: SANGER: Inhibition of human LXF-289 cell growth in a cell viability assay.

MHH-NB-11 = type: functional, cell-based, Homo sapiens; conditions: Homo sapiens, MHH-NB-11;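 also: growth inhibition of human MHH-NB-11 cells, read out by a cell viability assay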
Description: SANGER: Inhibition of human MHH-NB-11 cell growth in a cell viability assay.

MLMA = type: functional, cell-based, Homo sapiens; conditions: Homo sapiens, MLMA;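 also: growth inhibition of MLMA cells (human), determined through a cell viability readout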
Description: SANGER: Inhibition of human MLMA cell growth in a cell viability assay.

MMAC-SF = type: functional, cell-based; conditions: Homo sapiens;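 also: growth inhibition of human MMAC-SF cells, read out with a cell viability assay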
Description: SANGER: Inhibition of human MMAC-SF cell growth in a cell viability assay.

MPP-89 = type: functional, cell-based, Homo sapiens; conditions: Homo sapiens, MPP-89;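 also: growth inhibition of human MPP-89 cells, read out with a cell viability assay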
Description: SANGER: Inhibition of human MPP-89 cell growth in a cell viability assay.

MSTO-211H = type: functional, cell-based, Homo sapiens; conditions: Homo sapiens, MSTO-211H
Description: SANGER: Inhibition of human MSTO-211H cell growth in a cell viability assay.

NB5 = type: functional, cell-based, Homo sapiens; conditions: Homo sapiens, NB5;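 also: growth inhibition of NB5 cells, read out as cell viability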
Description: SANGER: Inhibition of human NB5 cell growth in a cell viability assay.

NCI-H1304 = type: functional, cell-based, Homo sapiens; conditions: Homo sapiens, NCI-H1304;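 also: growth inhibition of the cancer cell line, measured in a cell viability assay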
Description: SANGER: Inhibition of human NCI-H1304 cell growth in a cell viability assay.

NCI-H1838 = type: functional, cell-based, Homo sapiens; conditions: Homo sapiens, NCI-H1838;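 also: growth inhibition of NCI-H1838 cells, determined with a cell viability readout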
Description: SANGER: Inhibition of human NCI-H1838 cell growth in a cell viability assay.

NCI-H23 = type: functional, cell-based, Homo sapiens; conditions: Homo sapiens, NCI-H23;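 also: cell viability assay measuring growth inhibition of NCI-H23 cells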
Description: SANGER: Inhibition of human NCI-H23 cell growth in a cell viability assay.

NCI-H446 = type: functional, cell-based, Homo sapiens; conditions: Homo sapiens, NCI-H446;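 also: growth inhibition of NCI-H446 cells determined by a cell viability assay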
Description: SANGER: Inhibition of human NCI-H446 cell growth in a cell viability assay.

NCI-H747 = type: functional, cell-based, Homo sapiens; conditions: Homo sapiens, NCI-H747;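 also: growth inhibition of human NCI-H747 cells, read out by a cell viability assay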
Description: SANGER: Inhibition of human NCI-H747 cell growth in a cell viability assay.

NCI-N87 = type: functional, cell-based; conditions: Homo sapiens;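 also: growth inhibition of human NCI-N87 cells, read out with a cell viability assay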
Description: SANGER: Inhibition of human NCI-N87 cell growth in a cell viability assay.

SNU1 = type: functional, cell-based, Homo sapiens; conditions: Homo sapiens, SNU1;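 also: growth inhibition of human NCI-SNU-1 cells, measured with a cell viability assay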
Description: SANGER: Inhibition of human NCI-SNU-1 cell growth in a cell viability assay.

NH-12 = type: functional, cell-based, Homo sapiens; conditions: Homo sapiens, NH-12;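 also: growth inhibition of NH-12 cells, read out with a cell viability assay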
Description: SANGER: Inhibition of human NH-12 cell growth in a cell viability assay.

OMC-1 = type: functional, cell-based, Homo sapiens; conditions: Homo sapiens, OMC-1;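 also: growth inhibition of the OMC-1 cell line, measured by a cell viability assay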
Description: SANGER: Inhibition of human OMC-1 cell growth in a cell viability assay.

OS-RC-2 = type: functional, cell-based, Homo sapiens; conditions: Homo sapiens, OS-RC-2;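 also: growth inhibition of human OS-RC-2 cells, measured by a cell viability assay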
Description: SANGER: Inhibition of human OS-RC-2 cell growth in a cell viability assay.

RCC10RGB = type: functional, cell-based, Homo sapiens; conditions: Homo sapiens, RCC10RGB;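 also: growth inhibition of human RCC10RGB cells, read out by a cell viability assay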
Description: SANGER: Inhibition of human RCC10RGB cell growth in a cell viability assay.

SF-268 = type: functional, cell-based, Homo sapiens; conditions: Homo sapiens, SF-268;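 also: growth inhibition of SF-268 cells determined with a cell viability assay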
Description: SANGER: Inhibition of human SF268 cell growth in a cell viability assay.

SJSA-1 = type: functional, cell-based, Homo sapiens; conditions: Homo sapiens, SJSA-1;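 also: growth inhibition of human SJSA-1 cells, read out through a cell viability measurement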
Description: SANGER: Inhibition of human SJSA-1 cell growth in a cell viability assay.

SK-MEL-2 = type: functional, cell-based, Homo sapiens; conditions: Homo sapiens, SK-MEL-2;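 also: growth inhibition of human SK-MEL-2 cells measured with a cell viability assay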
Description: SANGER: Inhibition of human SK-MEL-2 cell growth in a cell viability assay.

SW872 = type: functional, cell-based, Homo sapiens; conditions: Homo sapiens, SW872;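 also: growth inhibition of SW872 cells, read out by a viability assay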
Description: SANGER: Inhibition of human SW872 cell growth in a cell viability assay.

ALL-PO = type: functional, cell-based, Homo sapiens; conditions: Homo sapiens, ALL-PO;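 also: growth inhibition of ALL-PO cells, read out by a cell viability assay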
Description: SANGER: Inhibition of human ALL-PO cell growth in a cell viability assay.

Becker = type: functional, cell-based, Homo sapiens; conditions: Homo sapiens, Becker;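 also: growth inhibition of Becker cells, read out with a cell viability assay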
Description: SANGER: Inhibition of human Becker cell growth in a cell viability assay.

CGTH-W-1 = type: functional, cell-based, Homo sapiens; conditions: Homo sapiens, CGTH-W-1;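 also: growth inhibition of human CGTH-W-1 cells measured by cell viability assay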
Description: SANGER: Inhibition of human CGTH-W-1 cell growth in a cell viability assay.

COR-L88 = type: functional, cell-based, Homo sapiens; conditions: Homo sapiens, COR-L88;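 also: growth inhibition of COR-L88 cells, read out with a cell viability assay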
Description: SANGER: Inhibition of human COR-L88 cell growth in a cell viability assay.

HCC2218 = type: functional, cell-based, Homo sapiens; conditions: Homo sapiens, HCC2218;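 also: cell viability assay read-out, with IC50 given as the concentration that inhibits growth of the cell line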
Description: SANGER: Inhibition of human HCC2218 cell growth in a cell viability assay.

Lu-65 = type: functional, cell-based, Homo sapiens; conditions: Homo sapiens, Lu-65;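 also: growth inhibition of Lu-65 cancer cells, read out by a cell viability assay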
Description: SANGER: Inhibition of human LU-65 cell growth in a cell viability assay.

NCI-H209 = type: functional, cell-based, Homo sapiens; conditions: Homo sapiens, NCI-H209;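 also: growth inhibition of human NCI-H209 cells, measured by a cell viability assay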
Description: SANGER: Inhibition of human NCI-H209 cell growth in a cell viability assay.

SNU-5 = type: functional, cell-based, Homo sapiens; conditions: Homo sapiens, SNU-5;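 also: cell viability readout used to measure growth inhibition in human NCI-SNU-5 cells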
Description: SANGER: Inhibition of human NCI-SNU-5 cell growth in a cell viability assay.

SBC-1 = type: functional, cell-based, Homo sapiens; conditions: Homo sapiens, SBC-1;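 also: cell viability assay measuring growth inhibition of the SBC-1 cell line, IC50 being the concentration that halves growth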
Description: SANGER: Inhibition of human SBC-1 cell growth in a cell viability assay.

O=C(NCCCNc1nc(Nc2cccc(NC(=O)N3CCCC3)c2)ncc1I)c1cccs1 [BX-795]
IC50 (COLO-800): 2.05 µM | IC50 (COLO-824): > 5 µM | IC50 (CW-2): > 5 µM | IC50 (DB): 2.13 µM | IC50 (ES7): 0.836 µM | IC50 (EW-11): > 5 µM | IC50 (EW-13): > 5 µM | IC50 (GI-ME-N): 1.87 µM | IC50 (GOTO): > 5 µM | IC50 (GR-ST): 4.98 µM | IC50 (HCE-T): > 5 µM | IC50 (HD-MY-Z): 3.87 µM | IC50 (HH): 4.65 µM | IC50 (HT-144): > 5 µM | IC50 (K562): > 5 µM | IC50 (KM-H2): > 5 µM | IC50 (KNS-42): > 5 µM | IC50 (KP-N-YS): > 5 µM | IC50 (LB2241-RCC): 2.69 µM | IC50 (LXF-289 cell line): 0.657 µM | IC50 (MHH-NB-11): > 5 µM | IC50 (MLMA): > 5 µM | IC50 (MMAC-SF): > 5 µM | IC50 (MPP-89): > 5 µM | IC50 (MSTO-211H): > 5 µM | IC50 (NB5): 2.94 µM | IC50 (NCI-H1304): > 5 µM | IC50 (NCI-H1838): > 5 µM | IC50 (NCI-H23): > 5 µM | IC50 (NCI-H446): 4.93 µM | IC50 (NCI-H747): > 5 µM | IC50 (NCI-N87): > 5 µM | IC50 (SNU1): 4.19 µM | IC50 (NH-12): 2.8 µM | IC50 (OMC-1): > 5 µM | IC50 (OS-RC-2): > 5 µM | IC50 (RCC10RGB): > 5 µM | IC50 (SF-268): 4.02 µM | IC50 (SJSA-1): > 5 µM | IC50 (SK-MEL-2): 4.02 µM | IC50 (SW872): 2.71 µM | IC50 (ALL-PO): 1.06 µM | IC50 (Becker): 3.01 µM | IC50 (CGTH-W-1): 0.971 µM

CN(C)CCOc1ccc(-c2nc(-c3ccncc3)c(-c3ccc4c(c3)CC/C4=N\O)[nH]2)cc1 [SB590885]
IC50 (COLO-800): > 5 µM | IC50 (COLO-824): > 5 µM | IC50 (COR-L88): > 5 µM | IC50 (CW-2): > 5 µM | IC50 (DB): > 5 µM | IC50 (ES7): > 5 µM | IC50 (EW-11): > 5 µM | IC50 (EW-13): > 5 µM | IC50 (GI-ME-N): > 5 µM | IC50 (GOTO): > 5 µM | IC50 (GR-ST): > 5 µM | IC50 (HCC2218): 1.06 µM | IC50 (HCE-T): > 5 µM | IC50 (HD-MY-Z): > 5 µM | IC50 (HH): > 5 µM | IC50 (HT-144): 0.435 µM | IC50 (K562): > 5 µM | IC50 (KM-H2): > 5 µM | IC50 (KNS-42): > 5 µM | IC50 (KP-N-YS): > 5 µM | IC50 (LB2241-RCC): > 5 µM | IC50 (Lu-65): > 5 µM | IC50 (LXF-289 cell line): > 5 µM | IC50 (MHH-NB-11): > 5 µM | IC50 (MLMA): > 5 µM | IC50 (MPP-89): > 5 µM | IC50 (MSTO-211H): > 5 µM | IC50 (NB5): > 5 µM | IC50 (NCI-H1304): > 5 µM | IC50 (NCI-H1838): > 5 µM | IC50 (NCI-H209): > 5 µM | IC50 (NCI-H23): > 5 µM | IC50 (NCI-H446): > 5 µM | IC50 (NCI-H747): > 5 µM | IC50 (NCI-N87): > 5 µM | IC50 (SNU1): 2.9 µM | IC50 (SNU-5): 1.58 µM | IC50 (NH-12): > 5 µM | IC50 (OMC-1): > 5 µM | IC50 (OS-RC-2): > 5 µM | IC50 (RCC10RGB): > 5 µM | IC50 (SBC-1): > 5 µM | IC50 (SF-268): > 5 µM | IC50 (SJSA-1): > 5 µM | IC50 (SK-MEL-2): 0.738 µM | IC50 (SW872): > 5 µM | IC50 (ALL-PO): > 5 µM | IC50 (Becker): > 5 µM | IC50 (CGTH-W-1): > 5 µM
